From US20250003968A1, “ACTIVITY-BASED CELL SORTING” (MASSACHUSETTS INSTITUTE OF TECHNOLOGY, priority 2021, published 2025)
Where no end group is shown, it is not given here. [ ]: non-standard residue; d: D form. Cy5 = Cy5 fluorophore label; code o = not defined here; QSY21 = quencher dye

How the values were obtained:
[1] = system: pulmonary protease activity; test: In vivo activity-based nanosensors, urinary reporters by LC-MS/MS; set-up: species or system mouse; details: within 3 days of treatment initiation; 20 mg/kg daily oral gavage
Protocol: The urinary reporter glutamate-fibrinopeptide B (Glu-Fib) was mass barcoded for detection by mass spectrometry. Nanosensors were dosed (50 μL total volume, 20 μM each nanosensor) in mannitol buffer (0.28 M mannitol, 5 mM sodium phosphate monobasic, 15 mM sodium phosphate dibasic, pH 7.0-7.5) by intratracheal intubation. Anesthesia was induced by isoflurane inhalation, and mice were monitored during recovery. For intratracheal instillation, a volume of 50 μL was administered by passive inhalation following intratracheal intubation with a 22G flexible plastic catheter (Exel). […]
LC-MS/MS was performed by Syneos Health using a Sciex™ 6500 triple quadrupole instrument. […] Samples were extracted by solid-phase extraction and analyzed by multiple reaction monitoring by LC-MSMS to quantify concentration of each Glu-Fib mass variant. Analyte quantities were normalized to a spiked-in internal standard and concentrations were calculated from a standard curve using peak area ratio (PAR) to the internal standard. […]
Analyses of urinary reporter data were conducted using the analytic pipelines of the protease activity analysis (PAA) package [52], a publicly available Python package designed to process and visualize enzymatic activity datasets. […] Ten independent train-test trials were run for each classification problem, and classification performance was evaluated with ROC statistics. […]

[2] = system: CD45-, CD11b- cells from lungs; test: Activity-based cell sorting / flow cytometry after QZ1 administration; format: in vivo, mouse
Protocol: Eml4-Alk mice (10-12 weeks post tumor induction) and age- and sex-matched C57BL/6J healthy controls (Jackson Labs; 18-22 weeks) were euthanized by isoflurane overdose, and lungs were excised, separated into lobes, and kept in a round cell culture dish (ThermoFisher) on ice. For tumor-bearing lungs, tumors were separated from healthy tissue using forceps and scissors under a dissecting microscope, and the dissected tumors and surrounding tissue were kept in 5 mL Eppendorf tubes (Sigma Aldrich) for preparation into single-cell suspension. Tissue was minced using Noyes spring scissors (Fine Science Tools) until pieces were less than 1 cm in size, with the visual appearance of ground meat. […]
Single cell lung suspensions from Eml4-Alk mice administered QZ1 were stained with the following antibodies (catalog number, vendor, clone, fluorophore, dilution): CD44 (563508, BD, IM7, BV605, 1:200), CD105 (564746, BD, MJ7/18, BV786, 1:200), Ly6-A/E (12-5981-81, ThermoFisher, D7, PE, 1:200), CD11b (557657, BD, M1/70, APC-Cy7, 1:200), CD45 (566439, BD, 30-F11, AF488, 1:400), and EpCAM (118216, BioLegend™, G8.8, PE-Cy7, 1:200). […] Flow cytometry data was analyzed by the FlowJo software (Treestar). […]

Eml4-Alk lungs = test: In vivo administration of QZ1-(PEG2K), IVIS imaging of explanted lungs; set-up: species or system mouse; details: two hours post intravenous injection
Protocol: QZ1 (Table 4) was reconstituted to 1 mg/mL in water, then reacted with mPEG-Maleimide, MW 2000 g/mol (Laysan Bio), for PEG coupling via maleimide-thiol chemistry. After completion of the reaction, the final compound was purified using HPLC. All reactions were monitored using HPLC connected with mass spectrometry. […] Eml4-Alk mice (11-12 weeks post tumor induction) and age- and sex-matched C57BL/6J healthy controls (Jackson Labs; 18-22 weeks) were anesthetized using isoflurane inhalation (Zoetis). QZ1-(PEG2K) (4.5 nmoles in 0.9% NaCl) was administered intravenously via tail vein injection. Two hours after probe injection, mice were imaged on an in vivo imaging system (IVIS, PerkinElmer) by exciting Cy5 at 640 nm and measuring emission at 680 nm. Mice were subsequently euthanized by isoflurane overdose followed by cervical dislocation. Lungs were dissected and explanted for imaging via IVIS. Fluorescence signal intensity was quantified using the Living Image software (PerkinElmer, v4).

[3] = target: T1, recombinant fibroblast activation protein (FAP) (Homo sapiens, UniProt Q12884); test: Quenched probe cleavage by recombinant FAP (fluorescence activation); format: biochemical; details: quenched probe Q1 incorporating S1
T1 sequence (Q12884 26-760 limits assumed): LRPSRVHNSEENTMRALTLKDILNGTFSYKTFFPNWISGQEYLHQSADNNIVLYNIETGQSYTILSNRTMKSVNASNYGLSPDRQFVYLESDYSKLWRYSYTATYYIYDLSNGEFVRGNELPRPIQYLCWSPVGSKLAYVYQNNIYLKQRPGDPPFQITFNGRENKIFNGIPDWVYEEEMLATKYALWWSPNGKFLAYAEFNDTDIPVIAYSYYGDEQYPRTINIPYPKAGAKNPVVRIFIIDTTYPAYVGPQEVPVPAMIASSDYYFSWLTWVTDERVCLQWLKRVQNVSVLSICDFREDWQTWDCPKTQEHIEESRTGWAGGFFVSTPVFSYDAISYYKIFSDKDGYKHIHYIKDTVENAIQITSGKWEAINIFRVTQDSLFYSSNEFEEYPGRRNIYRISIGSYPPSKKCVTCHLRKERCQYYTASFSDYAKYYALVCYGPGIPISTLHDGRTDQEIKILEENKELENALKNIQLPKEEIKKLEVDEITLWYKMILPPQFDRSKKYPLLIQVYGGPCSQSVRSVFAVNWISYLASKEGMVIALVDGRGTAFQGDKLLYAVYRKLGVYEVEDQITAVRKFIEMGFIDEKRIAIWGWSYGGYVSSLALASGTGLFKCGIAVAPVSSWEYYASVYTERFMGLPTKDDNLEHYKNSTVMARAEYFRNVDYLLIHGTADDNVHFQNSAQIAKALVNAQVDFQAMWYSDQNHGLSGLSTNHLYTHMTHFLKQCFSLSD
Protocol: FIG. 10. Fibroblast activation protein (FAP) cleaves S1 in vitro. The quenched probe Q1, incorporating the substrate S1, was incubated with recombinant FAP, and fluorescence activation was monitored over time (n=2 replicates; mean t s.d.).

CCc1cc2c(cc1N1CCC(N3CCOCC3)CC1)C(C)(C)c1[nH]c3cc(C#N)ccc3c1C2=O [alectinib]
reporters exhibiting differential enrichment in the urine of vehicle- versus alectinib-treated mice [1]: 12 of 14

(QSY21)-eeeeeeeee-c(PEG2K)-oGGPQGIWGQG-rrrrrrrrr-k(Cy5) (QSY21-[dE][dE][dE][dE][dE][dE][dE][dE][dE][dC](PEG2K)[code o]GGPQGIWGQG[dR][dR][dR][dR][dR][dR][dR][dR][dR][dK](Cy5); reading uncertain; also: X11: 5-amino-3-oxopentanoyl, other spacer, or absent, printed as (QSY21)-eeeeeeeee-c(PEG2K)-oGGPQGIWGQG-rrrrrrrrr-k(Cy5)) [QZ1, PEGylated quenched probe]
QZ1 staining in cells positive for mesenchymal cell markers ([2]; Eml4-Alk lungs, CD44, CD105, Ly-6A/E): increased QZ1 staining | QZ1 staining in cells positive for mesenchymal cell markers ([2]; healthy lungs, separate experiment): more variable pattern | Cy5 fluorescence in explanted Eml4-Alk lungs relative to healthy lungs (Eml4-Alk lungs): significantly increased

GGPQGIWGQC [S1]
cleavage by FAP in vitro [3]: cleaves
